Experiments:
[1] = system: prolyl 4-hydroxylase; settings: U.S. Pat. Nos. 5,789,426; 5,965,585; 5,965,586; cited from earlier work
[2] = system: P4-H; settings: one other tyrosinemic child (Pitkanen et al. 1999); cited from earlier work
[3] = system: P4-H; test: Collagen-derived serum biomarkers (PIIINP, NC1, NTD) for P4-H activity in a tyrosinemia I patient during NTBC treatment; assay type: in vivo, human
Description: A total of ten biomarkers were monitored from just before initiation of NTBC medication to up to 103 days of treatment, generating a total of 60 data points. […] P4-H activity was assessed via specific antigens released from three different groups of collagens, all of which are substrates for this enzyme. These biomarkers, quantified by specific radioimmunoassay, consisted of PIIINP, an indicator for the fibril-forming collagen type III; NC1, a marker for the sheet-forming collagen type IV; and NTD, an indicator for the beaded filament-forming collagen type VI. The P1 antigen, derived from the non-collagenous protein laminin and thus not dependent on P4-H activity, served as control.

[4] = system: laminin P1 antigen; test: Control biomarker P1 antigen of laminin (P4-H independent) during NTBC treatment; assay type: in vivo, human; settings: P4-H independent protein
Excerpt: Inherit Metab. […] Res. 39:[…]

Compound | inhibition of prolyl 4-hydroxylase [1] | initially elevated PIIINP level, response to treatment with NTBC [2] | NCI (collagen type IV biomarker) rise over initial value ([3]; after 103 days on NTBC) [factor] | NTC (collagen type VI biomarker) rise over initial value ([3]; after 103 days on NTBC) [factor] | biomarkers for P4-H activity (PIIINP, NC1, NTD), response to NTBC ([3]; three months study period) | laminin P1 antigen, response to NTBC treatment [4]
Cc1c(O)c(=O)ccn1C [DMHP, 1,2-dimethyl-3-hydroxypyrid-4-one] | known inhibitors of prolyl 4-hydroxylase | – | – | – | – | –
O=C1CCCC(=O)C1C(=O)c1ccc(C(F)(F)F)cc1[N+](=O)[O-] [NTBC, 2-(2-nitro-4-trifluoromethylbenzoyl)-cyclohexane-1,3-dione] | – | non-responsive | 1.1 | 1.1 | entirely unresponsive | unresponsive
